Consider 18 compounds from patent US20140005163A1 (NOVARTIS AG, priority 2010, published 2014).

A short description of data set [1]: Solubility at pH 6.8. As to conditions: pH 6.8, aqueous buffer, thermodynamic from solid; read-out: solubility. In kind it is physicochemical. Put shortly:
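Solubility was measured at pH 6.8 following the cited Zhou et al. (2007) procedure.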

The target in data set [2] is T1, PI3K alpha (Homo sapiens, UniProt P42336).
T1 construct: p85(iSH2) fusion partner (see partner chain) (N); His tag (C); made in house; host or cells: baculovirus; Tn5 (Trichoplusia ni) or TiniPro insect cells
T1 sequence (P42336 with tags, fused parts or gaps limits assumed): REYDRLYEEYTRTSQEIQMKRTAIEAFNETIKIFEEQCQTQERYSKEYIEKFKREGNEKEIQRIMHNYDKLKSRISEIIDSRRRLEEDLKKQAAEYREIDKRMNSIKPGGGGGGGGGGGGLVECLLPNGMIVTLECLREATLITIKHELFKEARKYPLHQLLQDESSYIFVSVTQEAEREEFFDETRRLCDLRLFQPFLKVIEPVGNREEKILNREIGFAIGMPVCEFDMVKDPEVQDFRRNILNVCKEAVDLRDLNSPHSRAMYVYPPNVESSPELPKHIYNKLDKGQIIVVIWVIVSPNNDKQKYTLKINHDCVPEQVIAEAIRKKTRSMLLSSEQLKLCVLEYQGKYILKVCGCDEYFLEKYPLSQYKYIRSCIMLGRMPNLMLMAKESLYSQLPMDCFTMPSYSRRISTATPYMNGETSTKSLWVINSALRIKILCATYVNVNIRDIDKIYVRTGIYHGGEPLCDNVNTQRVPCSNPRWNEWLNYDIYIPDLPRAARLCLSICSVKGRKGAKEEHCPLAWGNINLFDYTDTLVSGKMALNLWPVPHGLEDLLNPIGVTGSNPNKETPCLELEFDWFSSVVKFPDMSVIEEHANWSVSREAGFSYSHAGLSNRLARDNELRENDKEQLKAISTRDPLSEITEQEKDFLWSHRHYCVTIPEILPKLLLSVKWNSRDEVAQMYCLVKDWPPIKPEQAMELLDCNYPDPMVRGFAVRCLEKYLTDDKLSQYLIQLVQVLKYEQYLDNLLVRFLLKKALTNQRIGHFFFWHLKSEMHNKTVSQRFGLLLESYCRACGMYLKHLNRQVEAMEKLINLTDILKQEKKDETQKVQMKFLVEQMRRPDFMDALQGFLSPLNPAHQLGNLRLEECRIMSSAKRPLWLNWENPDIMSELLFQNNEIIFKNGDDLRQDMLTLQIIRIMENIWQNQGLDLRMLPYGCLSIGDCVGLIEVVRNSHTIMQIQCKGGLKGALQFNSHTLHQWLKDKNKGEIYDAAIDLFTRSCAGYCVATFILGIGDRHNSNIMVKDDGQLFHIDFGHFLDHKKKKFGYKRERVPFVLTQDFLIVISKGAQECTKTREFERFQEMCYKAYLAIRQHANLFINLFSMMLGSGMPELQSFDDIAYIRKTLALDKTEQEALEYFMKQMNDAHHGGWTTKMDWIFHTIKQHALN
Put plainly: PI3K alpha kinase assay (Kinase-Glo luminescence). In kind it is biochemical. The essentials: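 PI3Kα construct EMV B1075 (10 nM final) was preincubated with 10 μg/mL phosphatidylinositol in 10 mM Tris-HCl pH 7.5, 3 mM MgCl2, 50 mM NaCl, 0.05% CHAPS, 1 mM DTT. Reaction started with 1 μM ATP, 60 min at room temperature; remaining ATP measured by Kinase-Glo luminescence. IC50 from 4-parameter logistic fit of 8-point titrations.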

The target of data set [3] is T2, PI3K gamma (Homo sapiens, UniProt P48736).
T2 construct: His tag (C); made in house; host or cells: baculovirus (pVL1393); Tn5 or TiniPro insect cells; construct from Roger Williams lab, MRC LMB
T2 sequence (P48736 144-1102 limits assumed): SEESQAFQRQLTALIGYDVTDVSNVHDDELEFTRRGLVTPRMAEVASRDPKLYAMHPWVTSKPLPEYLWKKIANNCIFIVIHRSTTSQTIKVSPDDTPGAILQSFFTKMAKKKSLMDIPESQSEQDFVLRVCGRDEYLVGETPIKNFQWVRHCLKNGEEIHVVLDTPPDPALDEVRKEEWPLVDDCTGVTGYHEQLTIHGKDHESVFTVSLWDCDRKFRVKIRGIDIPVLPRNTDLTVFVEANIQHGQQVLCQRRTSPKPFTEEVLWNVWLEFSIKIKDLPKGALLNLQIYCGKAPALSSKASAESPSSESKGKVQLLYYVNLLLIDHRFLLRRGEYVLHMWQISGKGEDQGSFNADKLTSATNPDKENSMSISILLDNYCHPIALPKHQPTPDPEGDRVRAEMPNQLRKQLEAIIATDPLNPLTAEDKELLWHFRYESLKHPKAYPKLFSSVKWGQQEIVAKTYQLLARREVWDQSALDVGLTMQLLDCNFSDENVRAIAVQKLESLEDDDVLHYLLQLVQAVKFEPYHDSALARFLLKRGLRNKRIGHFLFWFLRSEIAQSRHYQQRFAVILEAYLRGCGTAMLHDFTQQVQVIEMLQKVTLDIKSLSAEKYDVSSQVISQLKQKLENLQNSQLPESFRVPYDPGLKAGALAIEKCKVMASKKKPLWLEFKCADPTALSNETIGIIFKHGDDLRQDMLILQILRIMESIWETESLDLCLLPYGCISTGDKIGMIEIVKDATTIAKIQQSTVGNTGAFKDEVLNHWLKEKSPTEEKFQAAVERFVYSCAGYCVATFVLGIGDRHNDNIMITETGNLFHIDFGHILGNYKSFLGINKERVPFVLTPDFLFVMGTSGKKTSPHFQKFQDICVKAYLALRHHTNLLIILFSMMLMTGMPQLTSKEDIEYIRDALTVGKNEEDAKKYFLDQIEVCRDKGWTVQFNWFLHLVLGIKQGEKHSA
The experiment in a line: PI3K gamma kinase assay (Kinase-Glo luminescence). Format: biochemical. The essentials:
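Luminescent ATP-depletion (Kinase-Glo) assay with 150 nM PI3Kγ, 1 μM ATP and 10 μg/mL phosphatidylinositol in 10 mM Tris-HCl pH 7.5, 3 mM MgCl2, 50 mM NaCl, 0.05% CHAPS, 1 mM DTT; 120 min at room temperature. Eight-point dilutions; IC50 by four-parameter logistic fit.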
On the technique in general: Kinase-Glo reads ATP consumption through a luciferase reaction.

By solubility is commonly meant the concentration that dissolves in the medium under given conditions. In general, IC50 refers to the concentration at which inhibition is half-maximal.

In brackets after ≈: the same amount, converted by molar mass. Several values for one entry are separate records, joined by “and”; a condition that tells them apart may be missing. Equal values may be shown once.

In the case of `COc1ccc(-c2ccc3ncc4c(c3c2)n(-c2c(C)nn(C)c2C)c(=O)n4C)cn1` [Example 2.4, 8-(6-Methoxy-pyridin-3-yl)-3-methyl-1-(1,3,5-trimethyl-1H-pyrazol-4-yl)-1,3-dihydro-imidazo[4,5-c]quinolin-2-one], the solubility in data set [1] turned out to be 50 µg/mL (≈ 121 µM). The IC50 is 65 nM in data set [2] and 199 nM in data set [3].

On to `CCOc1ccc(-c2ccc3ncc4c(c3c2)n(-c2cn(CC(=O)N3CCOCC3)nc2C)c(=O)n4C)cn1` [Example 3.10, 8-(6-Ethoxy-pyridin-3-yl)-3-methyl-1-[3-methyl-1-(2-morpholin-4-yl-2-oxo-ethyl)-1H-pyrazol-4-yl]-1,3-dihydro-imidazo[4,5-c]quinolin-2-one], for which the solubility in data set [1] was found to be 26 µg/mL (≈ 49.3 µM). Further, the IC50 in data set [2] turned out to be 91 nM; in data set [3], 867 nM.

In the case of `CCn1cc(-n2c(=O)n(C)c3cnc4ccc(-c5ccc(N(C)C)nc5)cc4c32)c(C)n1` [Example 4.2, 8-(6-Dimethylamino-pyridin-3-yl)-1-(1-ethyl-3-methyl-1H-pyrazol-4-yl)-3-methyl-1,3-dihydro-imidazo[4,5-c]quinolin-2-one], the solubility in data set [1] worked out at 7 µg/mL (≈ 16.4 µM). For the same compound, the IC50 in data set [2] was 15 nM; in data set [3], 242 nM.

As to `Cc1nn(C)c(C)c1-n1c(=O)n(C)c2cnc3ccc(-c4ccc(N(C)C)nc4)cc3c21` [Example 4.3, 8-(6-Dimethylamino-pyridin-3-yl)-3-methyl-1-(1,3,5-trimethyl-1H-pyrazol-4-yl)-1,3-dihydro-imidazo[4,5-c]quinolin-2-one], the solubility in data set [1] was 71 µg/mL (≈ 166 µM). For the same compound, the IC50 in data set [2] was 99 nM; in data set [3] it was 142 nM.

Regarding `Cc1nn(C(C)C)cc1-n1c(=O)n(C)c2cnc3ccc(-c4ccc(N5CCC5)nc4)cc3c21` [Example 5.2, 8-(6-Azetidin-1-yl-pyridin-3-yl)-1-(1-isopropyl-3-methyl-1H-pyrazol-4-yl)-3-methyl-1,3-dihydro-imidazo[4,5-c]quinolin-2-one], in data set [1], the solubility was determined as 7 µg/mL (≈ 15.4 µM). The IC50 in data set [2] was 34 nM; in data set [3], 227 nM.

For `Cc1ccc(-c2ccc3ncc4c(c3c2)n(-c2cn(C)nc2C)c(=O)n4C)cn1` [Example 7.2, 1-(1,3-Dimethyl-1H-pyrazol-4-yl)-3-methyl-8-(6-methyl-pyridin-3-yl)-1,3-dihydro-imidazo[4,5-c]quinolin-2-one], the solubility in data set [1] was 9 µg/mL (≈ 23.4 µM). For the same compound, the IC50 in data set [2] came to 14 nM; in data set [3] it was 191 nM.

Turning to `CNC(=O)c1ccc(-c2ccc3ncc4c(c3c2)n(-c2cn(C)nc2C)c(=O)n4C)cn1` [Example 15.1, 5-[1-(1,3-Dimethyl-1H-pyrazol-4-yl)-3-methyl-2-oxo-2,3-dihydro-1H-imidazo[4,5-c]quinolin-8-yl]-pyridine-2-carboxylic acid methylamide], the solubility in data set [1] came to 10 µg/mL (≈ 23.4 µM). Also, the results for the IC50 in data set [2] and in data set [3] were 16 nM and 528 nM, respectively.

`Cc1nn(C(C)C)cc1-n1c(=O)n(C)c2cnc3ccc(-c4ccc(CO)nc4)cc3c21` [Example 16.3, 8-(6-hydroxymethyl-pyridin-3-yl)-1-(1-isopropyl-3-methyl-1H-pyrazol-4-yl)-3-methyl-1,3-dihydro-imidazo[4,5-c]quinolin-2-one]: the solubility in data set [1] is more than 428 µg/mL. In addition, the IC50 was 59 nM in data set [2]; 408 nM and 359 nM in data set [3].

Regarding `CCn1cc(-n2c(=O)n(C)c3cnc4ccc(-c5cnc(OC)nc5)cc4c32)c(C)n1` [Example 17.1, 1-(1-Ethyl-3-methyl-1H-pyrazol-4-yl)-8-(2-methoxy-pyrimidin-5-yl)-3-methyl-1,3-dihydro-imidazo[4,5-c]quinolin-2-one], in data set [1], the solubility stood at 81 µg/mL (≈ 195 µM). Besides, the half-maximal inhibitory concentration (IC50) in data set [2] came out at 30 nM; in data set [3], 386 nM.

As for `COc1ncc(-c2ccc3ncc4c(c3c2)n(-c2cn(C)nc2C)c(=O)n4C)cn1` [Example 17.2, 1-(1,3-Dimethyl-1H-pyrazol-4-yl)-8-(2-methoxy-pyrimidin-5-yl)-3-methyl-1,3-dihydro-imidazo[4,5-c]quinolin-2-one], the solubility in data set [1] was 32 µg/mL (≈ 79.7 µM). Also, the figures for the IC50 in data set [2] and in data set [3] were 56 nM and 873 nM, respectively.

`CCOc1ccc(-c2ccc3ncc4c(c3c2)n(-c2c(C)nn(C)c2C)c(=O)n4C)cc1OC` [Example 29.2, 8-(4-Ethoxy-3-methoxy-phenyl)-3-methyl-1-(1,3,5-trimethyl-1H-pyrazol-4-yl)-1,3-dihydro-midazo[4,5-c]quinolin-2-one]: in data set [1], the solubility is 7 µg/mL (≈ 15.3 µM). For the same compound, the IC50 came to 38 nM in data set [2] and 145 nM in data set [3].

On to `CCn1cc(-n2c(=O)n(C)c3cnc4ccc(-c5cncc(C(C)(C)O)c5)cc4c32)c(C)n1` [Example 215.4, 1-(1-Ethyl-3-methyl-1H-pyrazol-4-yl)-8-[5-(1-hydroxy-1-methyl-ethyl)-pyridin-3-yl]-3-methyl-1,3-dihydro-imidazo[4,5-c]quinolin-2-one], for which the solubility in data set [1] was more than 443 µg/mL. Also, the IC50 in data set [2] turned out to be 6 nM.

As for `CNC(=O)c1cc(-c2ccc3ncc4c(c3c2)n(-c2cn(C)nc2C)c(=O)n4C)cnc1N` [Example 224.1, 2-Amino-5-[1-(1,3-dimethyl-1H-pyrazol-4-yl)-3-methyl-2-oxo-2,3-dihydro-1H-imidazo[4,5-c]quinolin-8-yl]-N-methyl-nicotinamide], the solubility in data set [1] stood at 5 µg/mL (≈ 11.3 µM). For the same compound, in data set [2], the IC50 came out at 15 nM.

In the case of `Cc1nn(C)cc1-n1c(=O)n(C)c2cnc3ccc(-c4cnc5c(c4)C(C)(C)C(=O)N5C)cc3c21` [Example 233, 1-(1,3-Dimethyl-1H-pyrazol-4-yl)-3-methyl-8-(1,3,3-trimethyl-2-oxo-2,3-dihydro-1H-pyrrolo[2,3-b]pyridin-5-yl)-1,3-dihydro-imidazo[4,5-c]quinolin-2-one], the solubility in data set [1] is 11 µg/mL (≈ 23.5 µM). In data set [2], the IC50 is 22 nM.

Regarding `COC(C)(C)c1cncc(-c2ccc3ncc4c(c3c2)n(-c2cn(C)nc2C)c(=O)n4C)c1` [Example 239, 1-(1,3-Dimethyl-1H-pyrazol-4-yl)-8-[5-(1-methoxy-1-methyl-ethyl)-pyridin-3-yl]-3-methyl-1,3-dihydro-imidazo[4,5-c]quinolin-2-one], the solubility in data set [1] came to 125 µg/mL (≈ 282 µM). Further, the IC50 in data set [2] came out at 10 nM.

As to `CCNC(=O)c1cc(-c2ccc3ncc4c(c3c2)n(-c2cn(C)nc2C)c(=O)n4C)cnc1NC` [Example 242.1, 5-[1-(1,3-Dimethyl-1H-pyrazol-4-yl)-3-methyl-2-oxo-2,3-dihydro-1H-imidazo[4,5-c]quinolin-8-yl]-N-ethyl-2-methylamino-nicotinamide], in data set [1], the solubility was 5 µg/mL (≈ 10.6 µM). For the same compound, in data set [2], the IC50 was found to be 23 nM.

Take `CCOc1cc(-c2ccc3ncc4c(c3c2)n(-c2cn(C)nc2C)c(=O)n4C)cnc1CO` [Example 243, 1-(1,3-Dimethyl-1H-pyrazol-4-yl)-8-(5-ethoxy-6-hydroxymethyl-pyridin-3-yl)-3-methyl-1,3-dihydro-imidazo[4,5-c]quinolin-2-one]: the solubility in data set [1] is 43 µg/mL (≈ 96.7 µM). For the same compound, in data set [2], the IC50 is 11 nM.

As for `COCCOc1cc(-c2ccc3ncc4c(c3c2)n(-c2cn(C)nc2C)c(=O)n4C)cnc1CO` [Example 244, 1-(1,3-Dimethyl-1H-pyrazol-4-yl)-8-[6-hydroxymethyl-5-(2-methoxy-ethoxy)-pyridin-3-yl]-3-methyl-1,3-dihydro-imidazo[4,5-c]quinolin-2-one], the solubility in data set [1] was determined as 92 µg/mL (≈ 194 µM). The IC50 in data set [2] stood at 30 nM.
